The test system of the data set is BV2 microglial cells. Nature of the data set: MTT assay for cytotoxicity toward BV2 microglial cells. Format: cell-based. To be noted: 24 hours. The method, then:
Cell viability was assessed using the 3-(4,5-dimethylthiazol-2-yl)-2,5-diphenyltetrazolium bromide (MTT) assay. […] The cells were then treated with 0.5 mg/ml MTT and incubated for 3 hours at 37° C. in a 5% CO2 incubator. Absorbance was read at 580 nm.
Background: Tetrazolium dyes change colour on reduction, which living cells bring about.

For `C=CC(=O)N1CCC[C@@H](n2nc(-c3ccc(Oc4ccccc4)cc3)c3c(N)ncnc32)C1` [ibrutinib], the “cytotoxicity in BV2 microglial cells” value is given as “cell death was detected” (50 μM) and “did not induce cytotoxicity” (concentrations up to 25 μM).

The values are drawn from patent US11826368B2 (DAEGU GYEONGBUK INSTITUTE OF SCIENCE AND TECHNOLOGY, priority 2018, dated 2023).
